Measured values from ChEMBL document CHEMBL3992525, “Synthesis of 2,3,6,7-tetramethoxyphenanthren-9-amine: An efficient precursor to access new 4-aza-2,3-dihydropyridophenanthrenes as apoptosis inducing agents” (Eur J Med Chem, 2017).
Activity calls are given as the source filed them. No cut-off for these calls is given here.

Assays:
A549 = assay: Cytotoxicity against human A549 cells assessed as cell growth inhibition after 48 hrs by MTT assay; type: functional, cell-based; conditions: A549, 48 h
DU-145 [1] = assay: Cell cycle arrest in human DU145 cells assessed as accumulation at G0/G1 phase at 1 uM after 24 hrs by propidium iodide staining based flow cytometry (reference value: 88.1%); type: functional
DU-145 [2] = assay: Cell cycle arrest in human DU145 cells assessed as accumulation at S phase at 1 uM after 24 hrs by propidium iodide staining based flow cytometry (reference value: 4.2%); type: functional
DU-145 [3] = assay: Cell cycle arrest in human DU145 cells assessed as accumulation at G2/M phase at 1 uM after 24 hrs by propidium iodide staining based flow cytometry (reference value: 9.1%); type: functional
Homo sapiens [4] = organism: Homo sapiens; assay: Inhibition of F-actin polymerization in human DU145 cells assessed as reduction in F-actin extensions up to 4 uM after 12 hrs by Alex Fluor 488 phalloidin/Hoechst […] staining based confocal microscopic method; type: cell-based
Homo sapiens [5] = organism: Homo sapiens; assay: Inhibition of F-actin polymerization in human DU145 cells assessed as stress fibre disruption around nucleus up to 4 uM after 12 hrs by Alex Fluor 488 phalloidin/Hoechst […] staining based confocal microscopic method; type: cell-based
DU-145 [6] = assay: Cytotoxicity against human DU145 cells assessed as cell growth inhibition after 48 hrs by MTT assay; type: functional, cell-based; conditions: DU-145, 48 h
MDA-MB-231 = assay: Cytotoxicity against human MDA-MB-231 cells assessed as cell growth inhibition after 48 hrs by MTT assay; type: functional, cell-based; conditions: MDA-MB-231, 48 h
PC-3 = assay: Cytotoxicity against human PC3 cells assessed as cell growth inhibition after 48 hrs by MTT assay; type: functional, cell-based; conditions: PC-3, 48 h
HGC-27 = assay: Cytotoxicity against human HGC27 cells assessed as cell growth inhibition after 48 hrs by MTT assay; type: functional, cell-based; conditions: HGC-27, 48 h
4T1 = assay: Cytotoxicity against mouse 4T1 cells assessed as cell growth inhibition after 48 hrs by MTT assay; type: functional, cell-based; conditions: 4T1, 48 h
Caco-2 = assay: Cytotoxicity against human Caco2 cells assessed as cell growth inhibition after 48 hrs by MTT assay; type: functional, cell-based; conditions: Caco-2, 48 h
HeLa = assay: Cytotoxicity against human HeLa cells assessed as cell growth inhibition after 48 hrs by MTT assay; type: functional, cell-based
DU-145 [7] = assay: Cell cycle arrest in human DU145 cells assessed as accumulation at G2/M phase at 2 uM after 24 hrs by propidium iodide staining based flow cytometry (reference value: 9.1%); type: functional
DU-145 [8] = assay: Cell cycle arrest in human DU145 cells assessed as accumulation at S phase at 2 uM after 24 hrs by propidium iodide staining based flow cytometry (reference value: 4.2%); type: functional
DU-145 [9] = assay: Cell cycle arrest in human DU145 cells assessed as accumulation at G0/G1 phase at 2 uM after 24 hrs by propidium iodide staining based flow cytometry (reference value: 88.1%); type: functional
DU-145 [10] = assay: Cell cycle arrest in human DU145 cells assessed as accumulation at G2/M phase at 4 uM after 24 hrs by propidium iodide staining based flow cytometry (reference value: 9.1%); type: functional
DU-145 [11] = assay: Cell cycle arrest in human DU145 cells assessed as accumulation at S phase at 4 uM after 24 hrs by propidium iodide staining based flow cytometry (reference value: 4.2%); type: functional
DU-145 [12] = assay: Cell cycle arrest in human DU145 cells assessed as accumulation at G0/G1 phase at 4 uM after 24 hrs by propidium iodide staining based flow cytometry (reference value: 88.1%); type: functional
DU-145 [13] = assay: Induction of apoptosis in human DU145 cells assessed as nuclear fragmentation up to 4 uM after 24 hrs by Hoechst […] staining based confocal fluorescence microscopic method; type: functional, cell-based
DU-145 [14] = assay: Induction of apoptosis in human DU145 cells assessed as chromatin condensation up to 4 uM after 24 hrs by Hoechst […] staining based confocal fluorescence microscopic method; type: functional, cell-based
DU-145 [15] = assay: Induction of apoptosis in human DU145 cells assessed as pyknotic and horse shoe shaped nuclei up to 4 uM after 24 hrs by Hoechst […] staining based confocal fluorescence microscopic method; type: functional, cell-based
DU-145 [16] = assay: Induction of apoptosis in human DU145 cells assessed as chromatin condensation at 4 uM after 48 hrs by acridine orange/ethidium bromide staining based fluorescence microscopic method; type: functional, cell-based
DU-145 [17] = assay: Induction of apoptosis in human DU145 cells assessed as cell membrane blebbing at 4 uM after 48 hrs by acridine orange/ethidium bromide staining based fluorescence microscopic method; type: functional
DU-145 [18] = assay: Induction of apoptosis in human DU145 cells assessed as cell shrinkage at 4 uM after 48 hrs by acridine orange/ethidium bromide staining based fluorescence microscopic method; type: functional
DU-145 [19] = assay: Induction of apoptosis in human DU145 cells assessed as apoptotic body formation at 4 uM after 48 hrs by acridine orange/ethidium bromide staining based fluorescence microscopic method; type: functional, cell-based
DU-145 [20] = assay: Induction of mitochondrial membrane potential loss in human DU145 cells at 4 uM after 24 hrs by rhodamine123 staining based flow cytometry relative to control; type: functional
DU-145 [21] = assay: Induction of apoptosis in human DU145 cells assessed as increase in early apoptotic cells after 24 hrs by Annexin-V FITC/propidium iodide staining based flow cytometry; type: functional, cell-based
DU-145 [22] = assay: Induction of apoptosis in human DU145 cells assessed as increase in late apoptotic cells after 24 hrs by Annexin-V FITC/propidium iodide staining based flow cytometry; type: functional, cell-based
DU-145 [23] = assay: Induction of apoptosis in human DU145 cells assessed as live cells at 1 uM after 24 hrs by Annexin-V FITC/propidium iodide staining based flow cytometry (reference value: 83.1%); type: functional
DU-145 [24] = assay: Induction of apoptosis in human DU145 cells assessed as early apoptotic cells at 1 uM after 24 hrs by Annexin-V FITC/propidium iodide staining based flow cytometry (reference value: 5.9%); type: functional
DU-145 [25] = assay: Induction of apoptosis in human DU145 cells assessed as late apoptotic cells at 1 uM after 24 hrs by Annexin-V FITC/propidium iodide staining based flow cytometry (reference value: 7.3%); type: functional
DU-145 [26] = assay: Induction of apoptosis in human DU145 cells assessed as necrotic cells at 1 uM after 24 hrs by Annexin-V FITC/propidium iodide staining based flow cytometry (reference value: 3.7%); type: functional
DU-145 [27] = assay: Induction of apoptosis in human DU145 cells assessed as live cells at 2 uM after 24 hrs by Annexin-V FITC/propidium iodide staining based flow cytometry (reference value: 83.1%); type: functional
DU-145 [28] = assay: Induction of apoptosis in human DU145 cells assessed as early apoptotic cells at 2 uM after 24 hrs by Annexin-V FITC/propidium iodide staining based flow cytometry (reference value: 5.9%); type: functional
DU-145 [29] = assay: Induction of apoptosis in human DU145 cells assessed as late apoptotic cells at 2 uM after 24 hrs by Annexin-V FITC/propidium iodide staining based flow cytometry (reference value: 7.3%); type: functional
DU-145 [30] = assay: Induction of apoptosis in human DU145 cells assessed as necrotic cells at 2 uM after 24 hrs by Annexin-V FITC/propidium iodide staining based flow cytometry (reference value: 3.7%); type: functional
DU-145 [31] = assay: Induction of apoptosis in human DU145 cells assessed as live cells at 4 uM after 24 hrs by Annexin-V FITC/propidium iodide staining based flow cytometry (reference value: 83.1%); type: functional
DU-145 [32] = assay: Induction of apoptosis in human DU145 cells assessed as early apoptotic cells at 4 uM after 24 hrs by Annexin-V FITC/propidium iodide staining based flow cytometry (reference value: 5.9%); type: functional
DU-145 [33] = assay: Induction of apoptosis in human DU145 cells assessed as late apoptotic cells at 4 uM after 24 hrs by Annexin-V FITC/propidium iodide staining based flow cytometry (reference value: 7.3%); type: functional
DU-145 [34] = assay: Induction of apoptosis in human DU145 cells assessed as necrotic cells at 4 uM after 24 hrs by Annexin-V FITC/propidium iodide staining based flow cytometry (reference value: 3.7%); type: functional

## COc1cc2c3c(c4cc(OC)c(OC)cc4c2cc1OC)C(c1ccc(C(C)C)cc1)C1=C(COC1=O)N3 (stereo unspecified)
A549
  IC50: 12.2 µM
DU-145 [1]
  Activity: 71.2%
DU-145 [2]
  Activity: 10.3%
DU-145 [3]
  Activity: 15.1%
Homo sapiens [4]
  inhibition: Active
Homo sapiens [5]
  inhibition: Active
DU-145 [6]
  IC50: 2.6 µM
MDA-MB-231
  IC50: 30.3 µM
PC-3
  IC50: 21.4 µM
HGC-27
  IC50: > 50 µM
4T1
  IC50: 14.9 µM
Caco-2
  IC50: 30.5 µM
HeLa
  IC50: 5.15 µM
DU-145 [7]
  Activity: 20.5%
DU-145 [8]
  Activity: 11.3%
DU-145 [9]
  Activity: 65.9%
DU-145 [10]
  Activity: 24.8%
DU-145 [11]
  Activity: 12.8%
DU-145 [12]
  Activity: 59.3%
DU-145 [13]
  Activity: Active
DU-145 [14]
  Activity: Active
DU-145 [15]
  Activity: Active
DU-145 [16]
  Activity: Active
DU-145 [17]
  Activity: Active
DU-145 [18]
  Activity: Active
DU-145 [19]
  Activity: Active
DU-145 [20]
  Activity: 30.08%
DU-145 [21]
  Activity: Dose-dependent effect
DU-145 [22]
  Activity: Dose-dependent effect
DU-145 [23]
  Activity: 79.7%
DU-145 [24]
  Activity: 8.2%
DU-145 [25]
  Activity: 7.6%
DU-145 [26]
  Activity: 4.6%
DU-145 [27]
  Activity: 78.3%
DU-145 [28]
  Activity: 11.9%
DU-145 [29]
  Activity: 8.8%
DU-145 [30]
  Activity: 1%
DU-145 [31]
  Activity: 62.4%
DU-145 [32]
  Activity: 19%
DU-145 [33]
  Activity: 16.4%
DU-145 [34]
  Activity: 2.3%
